Reference: US9023789B2, “Amylin analogs and pharmaceutical compositions thereof” (Novo Nordisk A/S, priority 2012, dated 2015)
Numbered stars: 1 amine (or outer) side, 2 acyl side, 3 side chain; on linkers, the order of the positions; unused ones are H or OH. Bridge positions count the residues as written; N and C are the ends. Side chains are listed from the residue outwards. Peptide text beside a SMILES is read from it. * marks the point of attachment. C20 diacid = O=C(O)CCCCCCCCCCCCCCCCCCC(=O)*; γGlu = O=C(O)[C@H](CCC(=O)[*:2])N[*:1]; AEEA = NCCOCCOCC(=O)O

Key:
[1] = biological target: T1, human calcitonin (a) receptor in BHK570 cells (Homo sapiens, UniProt P30988); assay: ASSAY (II)a functional assay, human calcitonin receptor (CRE luciferase); format: cell-based; conditions: read-out: hCTR funct. EC50
T1 construct: expressed in transfected cells
T1 sequence (P30988 25-474): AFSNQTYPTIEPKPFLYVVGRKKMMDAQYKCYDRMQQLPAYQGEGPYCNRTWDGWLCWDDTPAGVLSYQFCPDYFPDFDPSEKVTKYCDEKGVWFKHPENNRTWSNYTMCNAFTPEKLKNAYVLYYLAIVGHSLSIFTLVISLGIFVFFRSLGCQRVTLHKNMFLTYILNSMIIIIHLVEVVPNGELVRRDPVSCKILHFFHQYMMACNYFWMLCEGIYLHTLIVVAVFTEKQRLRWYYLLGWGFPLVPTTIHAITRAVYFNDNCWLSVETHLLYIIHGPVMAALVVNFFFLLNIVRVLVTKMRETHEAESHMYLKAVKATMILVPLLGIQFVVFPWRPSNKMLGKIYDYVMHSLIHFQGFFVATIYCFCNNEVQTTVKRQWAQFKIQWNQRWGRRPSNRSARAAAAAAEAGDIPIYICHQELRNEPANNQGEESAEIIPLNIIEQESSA
Procedure, shortened: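 Read-out: CRE-driven luciferase luminescence, single photon counting, after 30 min at room temperature with LucLite. BHK cells expressed calcitonin receptor alone or with RAMP-3 (amylin 3(a)). Cells were stimulated 3 h at 37° C in DMEM, 10% FBS, 10 mM Hepes, pH 7.4.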

[2] = biological target: T2, rat amylin receptor (rat calcitonin receptor + rat RAMP 3) (Rattus norvegicus, UniProt P32214+Q9JJ73); assay: ASSAY (VI) binding to the rat amylin receptor; conditions: for IC50: binding to rat amylin receptor, read-out: rAmylin-R bind IC50
T2 construct: expressed in transfected cells; host or cells: BHK tk'ts 13 (transient, FuGENE 6), membranes
T2 sequence (P32214 25-479 isoform P32214-2 limits assumed): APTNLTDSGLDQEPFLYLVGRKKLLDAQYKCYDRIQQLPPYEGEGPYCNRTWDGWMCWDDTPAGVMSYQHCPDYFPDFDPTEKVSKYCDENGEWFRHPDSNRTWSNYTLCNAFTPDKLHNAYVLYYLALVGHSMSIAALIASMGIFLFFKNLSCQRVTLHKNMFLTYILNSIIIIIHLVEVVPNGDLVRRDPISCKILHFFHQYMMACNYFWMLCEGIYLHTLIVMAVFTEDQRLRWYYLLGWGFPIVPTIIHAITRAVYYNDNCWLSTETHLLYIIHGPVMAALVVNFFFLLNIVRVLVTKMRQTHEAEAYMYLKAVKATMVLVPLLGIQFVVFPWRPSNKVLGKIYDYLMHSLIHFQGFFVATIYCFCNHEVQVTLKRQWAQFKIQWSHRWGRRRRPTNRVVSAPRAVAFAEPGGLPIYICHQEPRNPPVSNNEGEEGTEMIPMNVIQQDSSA
T2 sequence (Q9JJ73 23-147 partner): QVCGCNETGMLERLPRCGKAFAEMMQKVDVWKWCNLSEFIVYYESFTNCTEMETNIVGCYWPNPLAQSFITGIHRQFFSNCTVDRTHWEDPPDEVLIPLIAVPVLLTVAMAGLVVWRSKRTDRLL
Procedure, shortened: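 The cell-membrane assay assessed binding at the rat amylin receptor. BHK tk′ts 13 cells were transfected transiently with rat calcitonin receptor, with FuGENE® 6 (Roche) as the transfection reagent, used per the manufacturer's recommendations. Approximately 48 hours after transfection the cells were harvested, and membranes were prepared for measuring binding.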

[3] = biological target: T3, human calcitonin receptor (Homo sapiens, UniProt P30988); assay: ASSAY (VII) binding to the human calcitonin receptor (SPA, 125I-Calcitonin); conditions: read-out: hCTR bind IC50;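 note: cell membranes (35 ng/µL) combined with SPA beads in 40 µL of pH 7.4 Hepes buffer, 384-well format, signal counted on a TopCounter instrument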
T3 construct: expressed in transfected cells
T3 sequence (P30988 25-474): T1 sequence (P30988 25-474)

[4] = ASSAY (X) pK, determination of T½ in rat; format: in vivo; conditions: male, Sprague Dawley, plasma, iv, 20 nmol/kg
Male Sprague-Dawley rats = assay: ASSAY (XI) single subcutaneous administration, food intake monitored for 48 hours in rats; format: in vivo, rat; conditions: 30 nmol/kg; for Food intake red (%) 0-24 h / Food intake red (%) 24-48 h: single s.c., compared to vehicle; for food intake monitored over 48 hours: single subcutaneous administration, versus vehicle
Procedure, shortened: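 Male Sprague-Dawley rats from Taconic Europe, weighing about 250 g on the test day, were singly housed in an online food intake monitoring system (Ellegaard MBRose, Denmark). Before the study they were acclimatized to a reversed light cycle, with lights on from 10 PM to 10 AM. Each rat then received one subcutaneous dose of the analogue, and data are reported as mean±SEM.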

Male Wistar rats = assay: ASSAY (XII) effect from single subcutaneous administration on plasma calcium in rats; format: in vivo, rat; conditions: for Plasma calcium red (%) 0-12 h (maximal): single s.c., 30 nmol/kg, compared to vehicle; for suppression of plasma calcium level relative to vehicle: monitored over 24 hours
Procedure, shortened: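 Male Wistar rats (~250 g), groups of five, received a single subcutaneous dose at time 0. Blood drawn at −15 min, 1, 2, 4, 7, 12 and 24 h; total calcium measured in heparin plasma, reported as mean±SEM.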

[5] = ASSAY (IX) pK, determination of T½ in mini-pig; format: in vivo; conditions: male, Göttingen, minipig, plasma, iv, 2 nmol/kg
[6] = Table 7, rat binding selectivity, rCTR IC50 / rAmylin-R IC50
[7] = Table 7a (preferred compounds), rat binding selectivity, rCTR IC50 / rAmylin-R IC50
[8] = ratio of rCTR bind IC50 to rAmylin-R bind IC50

SMILES	EC50 [1] [nM]	IC50 ([2]; Table 7) [nM]	Ratio rCT/rAmylin binding [2, 6]	Ratio rCT/rAmylin binding [2, 7]	Ratio rCT/rAmylin binding [2, 8]	IC50 [3] [nM]	half-life [4] [h]	Food intake red (%) 0-24 h (Male Sprague-Dawley rats) [%]	Food intake red (%) 24-48 h (Male Sprague-Dawley rats) [%]	food intake monitored over 48 hours (Male Sprague-Dawley rats)	Plasma calcium red (%) 0-12 h (maximal) (Male Wistar rats) [%]	suppression of plasma calcium level relative to vehicle (Male Wistar rats; single subcutaneous 30 nmol/kg)	suppression of plasma calcium level relative to vehicle (Male Wistar rats; single subcutaneous 1000 nmol/kg)	half-life [5] [h]
CC[C@H](C)[C@H](NC(=O)[C@H](C)NC(=O)CNC(=O)[C@H](Cc1ccccc1)NC(=O)[C@H](CC(N)=O)NC(=O)[C@@H]1CCCN1C(=O)[C@H](CO)NC(=O)[C@H](CO)NC(=O)[C@H](Cc1c[nH]cn1)NC(=O)[C@H](CCCNC(=N)N)NC(=O)[C@H](CC(C)C)NC(=O)[C@H](Cc1ccccc1)NC(=O)[C@H](CCC(=O)O)NC(=O)[C@H](C)NC(=O)[C@H](CC(C)C)NC(=O)[C@H](CCCNC(=N)N)NC(=O)[C@H](CCC(N)=O)NC(=O)[C@@H](NC(=O)[C@H](C)NC(=O)[C@@H]1CSSC[C@H](NC(=O)[C@@H](N)CCCCNC(=O)CC[C@H](NC(=O)CC[C@H](NC(=O)CCCCCCCCCCCCCCCCCCC(=O)O)C(=O)O)C(=O)O)C(=O)N[C@@H](CC(N)=O)C(=O)N[C@@H]([C@@H](C)O)C(=O)N[C@@H](C)C(=O)N[C@@H]([C@@H](C)O)C(=O)N1)[C@@H](C)O)C(=O)N1CCC[C@H]1C(=O)N[C@@H](CO)C(=O)N[C@@H](CO)C(=O)N[C@H](C(=O)N[C@@H](CC(N)=O)C(=O)N[C@H](C(=O)NCC(=O)N1CCC[C@H]1C(=O)N[C@@H](CCCNC(=N)N)C(=O)N[C@H](C(=O)N[C@@H](Cc1ccc(O)cc1)C(N)=O)[C@@H](C)O)C(C)C)[C@@H](C)O [Example 110] (H-K([γGlu-γGlu-C20 diacid])CNTATCATQRLAEFLRHSSPNFGAIPSSTNVGPRTY-NH2; disulfide 2-7)	8.16	0.339	112.9	112.9	112.9	17.5	14	68	31	reduces food intake	8	None of the example compounds at 30 nmol/kg trigger a notable suppression of the calcium level	–	–
CC[C@H](C)[C@H](NC(=O)[C@H](C)NC(=O)CNC(=O)[C@H](Cc1ccccc1)NC(=O)[C@H](CC(N)=O)NC(=O)[C@@H]1CCCN1C(=O)[C@H](CO)NC(=O)[C@H](CO)NC(=O)[C@H](Cc1c[nH]cn1)NC(=O)[C@H](CCCNC(=N)N)NC(=O)[C@H](CC(C)C)NC(=O)[C@H](Cc1ccccc1)NC(=O)[C@H](CCC(=O)O)NC(=O)[C@H](C)NC(=O)[C@H](CC(C)C)NC(=O)[C@H](CCCNC(=N)N)NC(=O)[C@H](CCC(N)=O)NC(=O)[C@@H](NC(=O)[C@H](C)NC(=O)[C@@H]1CSSC[C@H](NC(=O)[C@@H](N)CCCCNC(=O)CC[C@H](NC(=O)CC[C@H](NC(=O)CCCCCCCCCCCCCCCCCCC(=O)O)C(=O)O)C(=O)O)C(=O)N[C@@H](CC(N)=O)C(=O)N[C@@H]([C@@H](C)O)C(=O)N[C@@H](C)C(=O)N[C@@H]([C@@H](C)O)C(=O)N1)[C@@H](C)O)C(=O)N1CCC[C@H]1C(=O)N[C@@H](CO)C(=O)N[C@@H](CO)C(=O)N[C@H](C(=O)N[C@@H](CC(N)=O)C(=O)N[C@H](C(=O)NCC(=O)N[C@@H](CO)C(=O)N[C@@H](CCCNC(=N)N)C(=O)N[C@H](C(=O)N[C@@H](Cc1ccc(O)cc1)C(N)=O)[C@@H](C)O)C(C)C)[C@@H](C)O [Example 89] (H-K([γGlu-γGlu-C20 diacid])CNTATCATQRLAEFLRHSSPNFGAIPSSTNVGSRTY-NH2; disulfide 2-7 (inferred); N-terminus assumed)	11.2	2.37	48.8	48.8	48.8	32.5	23	46	37	reduce food intake	7	None of the example compounds at 30 nmol/kg trigger a notable suppression of the calcium level	induces a more pronounced suppression of the calcium level	–
CC[C@H](C)[C@H](NC(=O)[C@H](C)NC(=O)CNC(=O)[C@H](Cc1ccccc1)NC(=O)[C@H](CC(N)=O)NC(=O)[C@@H]1CCCN1C(=O)[C@H](CO)NC(=O)[C@H](CO)NC(=O)[C@H](Cc1c[nH]cn1)NC(=O)[C@H](CCCNC(=N)N)NC(=O)[C@H](CC(C)C)NC(=O)[C@H](Cc1ccccc1)NC(=O)[C@H](CC(N)=O)NC(=O)[C@H](C)NC(=O)[C@H](CC(C)C)NC(=O)[C@H](CCCNC(=N)N)NC(=O)[C@H](CCC(N)=O)NC(=O)[C@@H](NC(=O)[C@H](C)NC(=O)[C@@H]1CSSC[C@H](NC(=O)[C@@H](N)CCCCNC(=O)COCCOCCNC(=O)CC[C@H](NC(=O)CCCCCCCCCCCCCCCCCCC(=O)O)C(=O)O)C(=O)N[C@@H](CC(N)=O)C(=O)N[C@@H]([C@@H](C)O)C(=O)N[C@@H](C)C(=O)N[C@@H]([C@@H](C)O)C(=O)N1)[C@@H](C)O)C(=O)N1CCC[C@H]1C(=O)N[C@@H](CO)C(=O)N[C@@H](CO)C(=O)N[C@H](C(=O)N[C@@H](CC(N)=O)C(=O)N[C@H](C(=O)NCC(=O)N[C@@H](Cc1c[nH]cn1)C(=O)N[C@@H](CC(N)=O)C(=O)N[C@H](C(=O)N[C@@H](Cc1ccc(O)cc1)C(N)=O)[C@@H](C)O)C(C)C)[C@@H](C)O [Example 76] (H-K([AEEA-γGlu-C20 diacid])CNTATCATQRLANFLRHSSPNFGAIPSSTNVGHNTY-NH2; disulfide 2-7; N-terminus assumed)	7.37	0.686	56.8	56.8	56.8	17.2	–	–	–	–	–	–	–	76
